Five compounds from ChEMBL document CHEMBL4261645, “Isolation, leishmanicidal evaluation and molecular docking simulations of piperidine alkaloids from Senna spectabilis” (Bioorg Med Chem, 2018) can be followed below.

Converted amounts (≈) assume the structure as drawn.

Data set [1] deals with Leishmania amazonensis. As to the kind of experiment: Leishmanicidal activity against Leishmania amazonensis PH8 promastigotes after 48 hrs by spectrophotometric analysis. Type of data set: functional, organism-based. To be noted: PH8, 48 h.
Data set [2] can be described thus: Cytotoxicity against African green monkey Vero cells after 48 hrs by resazurin dye-based spectrophotometric analysis. Type of data set: cell-based. The settings on record: chlorocebus sabaeus.
The test system of data set [3] is Leishmania major. The experiment in a line: Leishmanicidal activity against Leishmania major MHOM/SU/1973/5-ASKH promastigotes after 48 hrs by cell counting method. Type of data set: functional, organism-based.
Data set [4] in a line: Log10 selectivity index, ratio of CC50 for African green monkey Vero cells to IC50 for Leishmania amazonensis PH8 promastigotes. The settings on record: Vero cells versus Leishmania amazonensis PH8 promastigotes.

In the case of `CC(=O)CCCCCCCCCCCC[C@H]1CC[C@@H](O)[C@@H](C)N1`, the IC50 – broadly, the concentration that gives 50% inhibition – came out at 15.8 µg/mL (≈ 48.6 µM) in data set [1] and 24.9 µg/mL (≈ 76.5 µM) in data set [3]. Moreover, the CC50 (as a rule, the concentration at which the toxic effect on the cells reaches its halfway point) at 48 h in data set [2] came out at 66.7 µg/mL (≈ 205 µM). Moreover, in data set [4], the log10 selectivity index amounted to 0.62.

In data set [1], `CC(=O)CCCCCCCCCCCC[C@H]1CC[C@@H](OC(C)=O)[C@@H](C)N1` came in with an IC50 of 25.9 to 26.3 µg/mL (≈ 70.6 to 71.6 µM). The CC50 at 48 h in data set [2] fell in the range of 255 to 274 µg/mL (≈ 694 to 744 µM). In data set [4], the log10 selectivity index lay within 0.99 to 1.02.

Consider `CC(=O)CCCCCCCCCC[C@H]1CC[C@@H](OC(C)=O)[C@@H](C)N1`, for which the IC50 in data set [1] lay within 30.2 to 30.7 µg/mL (≈ 89.1 to 90.5 µM). In data set [2], this compound returned a CC50 at 48 h of 357 to 361 µg/mL (≈ 1050 to 1060 µM). For the same compound, the log10 selectivity index in data set [4] lay in the range of 1.06 to 1.07.

Turning to `C[C@@H]1[C@H](O)[C@@H](C)/C=C/C=C/C=C/C=C/C=C/C=C/C=C/[C@H](O[C@@H]2O[C@H](C)[C@@H](O)[C@H](N)[C@@H]2O)C[C@@H]2O[C@](O)(C[C@@H](O)C[C@@H](O)[C@H](O)CC[C@@H](O)C[C@@H](O)CC(=O)O[C@H]1C)C[C@H](O)[C@H]2C(=O)O` [AMPHOTERICIN B], the IC50 in data set [1] turned out to be 0.29 µg/mL (≈ 0.314 µM).

Regarding `CC(=O)CCCCCCCCCC[C@H]1CC[C@@H](O)[C@@H](C)N1` [CASSINE], the IC50 was 25.2 µg/mL (≈ 84.6 µM) in data set [1] and 1.6 µg/mL (≈ 5.38 µM) in data set [3]. In data set [2], the CC50 at 48 h came out at 249 µg/mL (≈ 838 µM). In data set [4], the log10 selectivity index turned out to be 0.99.
